Patent publication US5859026A, “Quinoline carboxylic acid” (priority 1995, dated 1999)
In brackets after ≈: the same amount, converted by molar mass. Values belong to the molecule of their own block, whether it stands above or below them.

Key:
[1] = system: Chinese hamster lung cell line (CHL cell); experiment: Chromosomal aberration test; assay type: cell-based; details: 100 μg/ml, 6 hours treatment at 37° C., then 18 hours in fresh medium
Procedure: 2. Chromosomal aberration test
The experiments were carried out using a Chinese hamster lung cell line (CHL cell). The test compounds prepared were added to cultured cells, and cultivation was continued for 6 hours at 37° C. in 5% CO2. 2-(2-furyl)-3-(5-nitro-2-furyl) acrylamide was used as a positive control. After the cultivation for 6 hours, the cells were washed and added with fresh medium, and then cultivation was further continued for 18 hours. Colcemide solution was added to the culture 2 hours before the completion of the cultivation, and the chromosomal specimens were prepared after the cultivation was completed. Incidence rates of aberration cells were measured at the treatments with 100 μg/ml of the test compounds.

Male Hartley guinea pigs = experiment: Phototoxicity; assay type: in vivo, guinea pig; details: 10 mg/kg intravenous, UV exposure 90 minutes, observed 24 hours after irradiation
Procedure: Male Hartley guinea pigs were intravenously administered with test compounds at a dose of 10 mg/kg, and then immediately exposed to WVA on their backs for 90 minutes. Erythemas on the UV irradiated skin were observed 24 hours after the irradiation.

S. aureus HPC308 = experiment: Antibacterial activity (MIC), clinically isolated strain; assay type: cell-based; details: Staphylococcus aureus; clinical isolate S. aureus HPC308, Gram +, 10^6 viable cells per ml; read-out: minimum inhibitory concentration (MIC)
Excerpt: (§1) 1. Antibacterial spectrum against standard strains and clinically isolated strains

S. aureusHPC292 = experiment: as above; assay type: cell-based; details: Staphylococcus aureus; clinical isolate S. aureus HPC292, Gram +, 10^6 viable cells per ml; read-out: minimum inhibitory concentration (MIC)
Excerpt: as §1

E. faecalis HPC948 = experiment: as above; assay type: cell-based; details: Enterococcus faecalis; clinical isolate E. faecalis HPC948, Gram +, 10^6 viable cells per ml; read-out: minimum inhibitory concentration (MIC)
Excerpt: as §1

K. pneumoniae HNR869 = experiment: as above; assay type: cell-based; details: Klebsiella pneumoniae; clinical isolate K. pneumoniae HNR869, Gram -, 10^6 viable cells per ml; read-out: minimum inhibitory concentration (MIC)
Excerpt: as §1

K. pneumoniae HNR858 = experiment: as above; assay type: cell-based; details: Klebsiella pneumoniae; clinical isolate K. pneumoniae HNR858, Gram -, 10^6 viable cells per ml; read-out: minimum inhibitory concentration (MIC)
Excerpt: as §1

A. calcoaceticus HNR916 = experiment: as above; assay type: cell-based; details: Acinetobacter calcoaceticus; clinical isolate A. calcoaceticus HNR916, Gram -, 10^6 viable cells per ml; read-out: minimum inhibitory concentration (MIC)
Excerpt: as §1

E. faecalis HPC975 = experiment: as above; assay type: cell-based; details: Enterococcus faecalis; clinical isolate E. faecalis HPC975, Gram +, 10^6 viable cells per ml; read-out: minimum inhibitory concentration (MIC)
Excerpt: as §1

E. cloacae HNR1939 = experiment: as above; assay type: cell-based; details: Enterobacter cloacae; clinical isolate E. cloacae HNR1939, Gram -, 10^6 viable cells per ml; read-out: minimum inhibitory concentration (MIC)
Excerpt: as §1

S. marcescens HNR1792 = experiment: as above; assay type: cell-based; details: Serratia marcescens; clinical isolate S. marcescens HNR1792, Gram -, 10^6 viable cells per ml; read-out: minimum inhibitory concentration (MIC)
Excerpt: as §1

S. marcescens HNR1544 = experiment: as above; assay type: cell-based; details: Serratia marcescens; clinical isolate S. marcescens HNR1544, Gram -, 10^6 viable cells per ml; read-out: minimum inhibitory concentration (MIC)
Excerpt: as §1

E. cloacae HNR1941 = experiment: as above; assay type: cell-based; details: Enterobacter cloacae; clinical isolate E. cloacae HNR1941, Gram -, 10^6 viable cells per ml; read-out: minimum inhibitory concentration (MIC)
Excerpt: as §1

A. calcoaceticus HNR904 = experiment: as above; assay type: cell-based; details: Acinetobacter calcoaceticus; clinical isolate A. calcoaceticus HNR904, Gram -, 10^6 viable cells per ml; read-out: minimum inhibitory concentration (MIC)
Excerpt: as §1

E. faecalis HPC984 = experiment: as above; assay type: cell-based; details: Enterococcus faecalis; clinical isolate E. faecalis HPC984, Gram +, 10^6 viable cells per ml; read-out: minimum inhibitory concentration (MIC)
Excerpt: as §1

E. cloacae HNR1946 = experiment: as above; assay type: cell-based; details: Enterobacter cloacae; clinical isolate E. cloacae HNR1946, Gram -, 10^6 viable cells per ml; read-out: minimum inhibitory concentration (MIC)
Excerpt: as §1

S. aureus HPC527 = experiment: as above; assay type: cell-based; details: Staphylococcus aureus; clinical isolate S. aureus HPC527, Gram +, 10^6 viable cells per ml; read-out: minimum inhibitory concentration (MIC)
Excerpt: as §1

E. coli NIHJ JC-2 = experiment: Antibacterial activity (MIC), standard strain; assay type: cell-based; details: Escherichia coli, NIHJJC2; standard strain E. coli NIHJ JC-2, Gram -, 10^6 viable cells per ml; read-out: minimum inhibitory concentration (MIC)
Excerpt: as §1

S. marcescens IAM 1184 = experiment: Antibacterial activity (MIC), standard strain; assay type: cell-based; details: Serratia marcescens, IAM1184; standard strain S. marcescens IAM 1184, Gram -, 10^6 viable cells per ml; read-out: minimum inhibitory concentration (MIC)
Excerpt: as §1

K. pneumoniae PCI-602 = experiment: Antibacterial activity (MIC), standard strain; assay type: cell-based; details: Klebsiella pneumoniae, PCI602; standard strain K. pneumoniae PCI-602, Gram -, 10^6 viable cells per ml; read-out: minimum inhibitory concentration (MIC)
Excerpt: as §1

S. aureus FDA 209P JC-1 = experiment: Antibacterial activity (MIC), standard strain; assay type: cell-based; details: Staphylococcus aureus, FDA209P; standard strain S. aureus FDA 209P JC-1, Gram +, 10^6 viable cells per ml; read-out: minimum inhibitory concentration (MIC)
Excerpt: as §1

E. colacae 963 = experiment: Antibacterial activity (MIC), standard strain; assay type: cell-based; details: Enterobacter cloacae; standard strain E. colacae 963, Gram -, 10^6 viable cells per ml; read-out: minimum inhibitory concentration (MIC)
Procedure: as §1
Antibacterial activities (minimum inhibitory concentration: MIC) were determined according to the standard method of the Japan Society of Chemotherapy (Chemotherapy (Tokyo), 29 (1), 76, 1981) by using standard strains and strains isolated from patients of infectious disease (clinically isolated strains) and applying 10^6 viable cells per ml. […].

male ICR mice = experiment: Induction of convulsions, intraperitoneal (i.p.) administration; assay type: in vivo, mouse; details: 100 mg/kg i.p., 30 minutes after oral fenbufen 100 mg/kg; for Induction of convulsion, i.p. (number of mice with convulsions): animals with convulsions/animals tested
Excerpt: 4. The induction of convulsions
1) Intraperitoneal (i.p.) administration

Male Wistar rats = experiment: Induction of convulsions, intracerebroventricular (i.c.v.) administration; assay type: in vivo, rat; details: 30 minutes after i.p. fenbufen 50 mg/kg, observed at least 4 hours
Procedure: 2) Intracerebroventricular (i.c.v.) administration
Male Wistar rats (weighing 180-220 g) were anesthetized with sodium pentobarbital at 45 mg/kg, i.p., and then the head of the rat was fixed in a stereotaxic apparatus. A stainless steel guide cannula for intracerebroventricular injectionin in 0.6 mm diameter was implanted as a guide cannula so as to be positioned at 1.5 mm above the left lateral cerebroventricle (A:6.2,R:1.0,H:+1.0) according to the brain atlas of De Groot (1959). The guide cannula was fixed by using a dental cement, and then closed with a stainless steel stylet in 0.3 mm diameter. Potassium penicillin G (10,000 units) were subcutaneously administered to prevent an infection. The rats were subjected to the experiments after recovery time for several days from the surgery.
For the measurement of the induction of convulsions, 50 mg/kg of fenbufen was intraperitoneally administered, and then the test compound was intracerebroventricularly administered after 30 minutes from the administration of fenbufen by means of a stainless steel cannula in 0.3 mm diameter that was connected with a polyethylene catheter and adjusted so as to be 1.5 mm longer than the guide cannula for an administration at an accurate position of cerebroventricle (H:+1.0). […] After the completion of the above experiment, the administered positions were confirmed by intraventricularly injecting 10 μl of 1% Evans blue to each of the rats, and followed by sectioning the brains.

MIC (S. aureus HPC308): 0.2 µg/mL (≈ 0.534 µM)
MIC (S. aureusHPC292): 0.78 µg/mL (≈ 2.08 µM)
MIC (E. faecalis HPC948): 0.1 µg/mL (≈ 0.267 µM)
MIC (K. pneumoniae HNR869): 0.78 µg/mL (≈ 2.08 µM)
MIC (K. pneumoniae HNR858): 0.1 µg/mL (≈ 0.267 µM)
MIC (A. calcoaceticus HNR916): 0.006 µg/mL (≈ 0.016 µM)
MIC (E. faecalis HPC975): 0.78 µg/mL (≈ 2.08 µM)
MIC (E. cloacae HNR1939): 0.1 µg/mL (≈ 0.267 µM)
MIC (S. marcescens HNR1792): 1.56 µg/mL (≈ 4.17 µM)
MIC (S. marcescens HNR1544): 0.025 µg/mL (≈ 0.0668 µM)
MIC (E. cloacae HNR1941): 3.13 µg/mL (≈ 8.36 µM)
MIC (A. calcoaceticus HNR904): 1.56 µg/mL (≈ 4.17 µM)
MIC (E. faecalis HPC984): 0.05 µg/mL (≈ 0.134 µM)
MIC (E. cloacae HNR1946): 0.1 µg/mL (≈ 0.267 µM)
MIC (S. aureus HPC527): 0.006 µg/mL (≈ 0.016 µM)
MIC (E. coli NIHJ JC-2): 0.006 µg/mL (≈ 0.016 µM)
MIC (S. marcescens IAM 1184): 0.05 µg/mL (≈ 0.134 µM)
MIC (K. pneumoniae PCI-602): 0.0008 µg/mL (≈ 0.00214 µM)
MIC (S. aureus FDA 209P JC-1): 0.006 µg/mL (≈ 0.016 µM)
MIC (E. colacae 963): 0.012 µg/mL (≈ 0.032 µM)
Compound: Cc1c(N2C[C@@H](N)[C@@H](C)C2)c(F)c(N)c2c(=O)c(C(=O)O)cn(C3CC3)c12 [Compound 1, 5-amino-7-((3S,4S)-3-amino-4-methyl-1-pyrrolidinyl)-1-cyclopropyl-6-fluoro-1,4-dihydro-8-methyl-4-oxoquinoline-3-carboxylic acid]
incidence rate of the aberration cells [1]: less than 10%
Phototoxicity (in words) (Male Hartley guinea pigs): induced no phototoxicity
Phototoxicity (number of guinea pigs with erythemas) (Male Hartley guinea pigs; animals with erythemas/animals tested): 0/5
Induction of convulsions, i.p. (in words) (male ICR mice): did not induce convulsions
Induction of convulsion, i.p. (number of mice with convulsions) (male ICR mice): 0/6

Compound: O=C(O)c1cn(C2CC2)c2cc(N3CCNCC3)c(F)cc2c1=O [Reference Compound A, Ciprofloxacin]
Induction of convulsions, i.c.v. (in words) (Male Wistar rats): convulsions were observed in all of the animals (each three animals)
Induction of convulsion, i.c.v. (number of rats with convulsions) (Male Wistar rats; animals with convulsions/animals tested): 3/3
incidence rate of the aberration cells [1]: less than 10%
Induction of convulsions, i.p. (in words) (male ICR mice): convulsions were observed in the half of the animals
Induction of convulsion, i.p. (number of mice with convulsions) (male ICR mice): 3/6
